Legend:
Type in all cases: cell-based
[1] = tested on: AB5075 a MDR-clinical isolate of A. baumannii; assay: Time-kill assay in CAMHB; details: for time-kill course of CFU/mL: CAMHB, 24 hours (FIG. 8A); for effect on CFU/ml (time-kill, FIG. 13): 2 and 6 hours
Method: (§1) Reductions in colony forming units (CFU)/mL were determined over time (time-kill assay) after exposure to VK28 and deferiprone (DFP), the two iron chelators that performed best in MIC assays when compared to controls. To better represent the iron content found in the human body, MIC and time-kill assays were also determined in minimal media and tissue culture media. Time-Kill assays were performed as previously described in G. P. Neupane et al., “In vitro time-kill activities of ciprofloxacin alone and in combination with the iron chelator deferasirox against Vibrio vulnificus,” European Journal of Clinical Microbiology and Infectious Diseases, 407-410 (2010); and R. L. White, et al., “Comparison of Three Different In Vitro Methods of Detecting synergy: Time-Kill, Checkerboard, and E test,” Journal of Antimicrobial Agents and Chemotherapy, 1914-1918 (1996). Initial inocula, for example 1×10^6 CFU/mL or 1×10^7 CFU/mL were challenged with iron chelator with and/or without an antibiotic. Cells were allowed to grow in CAMHB at 37° C. for 24 hours. Time-kill results were analyzed by determining the change in log 10 numbers of CFU/ml at 0, 6, and 24 h, compared to counts at 0 h. Antimicrobials were considered bactericidal at the lowest concentration that reduced the size of the original inoculum by >3 log 10 CFU/ml (99.9%) over each of the time periods and were considered bacteriostatic if the inoculum's size was reduced by 0 to <3 log 10 CFU/ml.
(§2) In this example, time-kill assays were performed as described in Example 9 using Apo6619 as the iron chelator against AB5075 (MRSN959), the MDR-clinical isolate of A. baumannii. The initial inocula was 1×10^6 CFU/mL, and were challenged with 0.5×MIC, 1×MIC and 2×MIC of Apo6619. Time-kill results were analyzed by determining the change in log 10 numbers of CFU/mL at 0, 2 and 4 hours.
as §2, with “VK28 or DFP” for “Apo6619”, “AB5075,” for “AB5075 (MRSN959),”, “either VK28 or DFP.” for “Apo6619.”, “at” for “at 0,”, “6” for “4”

[2] = tested on: clinical isolates of A. baumannii; assay: MIC for clinical isolates in CAMHB media (Table 3); details: Acinetobacter baumannii
Method: Individual MICs were determined following the microdilution method recommended by CLSI in cationic-adjusted Mueller-Hinton Broth (CAMHB), or M9 media. […] Tests were performed in triplicate. MIC of iron chelators were determined for noscomial ESKAPE pathogens.

[3] = tested on: clinical isolates of A. baumannii; assay: MIC for clinical isolates in RPMI (low iron) media (Table 4); parameters: key to MIC of Iron Chelators: NG = no growth in table 4; details: for MIC: Acinetobacter baumannii
Method: […] […] Tests were performed in triplicate. MIC of iron chelators were determined for noscomial ESKAPE pathogens.
For a number of strains, the iron chelators produced no growth of bacteria (NG).

[4] = tested on: A. baumannii AB 19606, AB 17978; assay: Checkerboard assay, chelator with antibiotic (FIC); details: for checkerboard interaction: AB19606
Text: Drug interactions were initially evaluated with the “checkerboard” microdilution design, which provided a matrix of all drug combinations assayed in terms of fractions of the previously determined MIC. The checkerboard microdilution design is described in R. J. Tallarida, “Drug Synergism: Its Detection and Applications,” Journal of Pharmacology and Experimental Therapeutics, 865-872 (2001); and in R. L. White, et al., (1996), supra. FIGS. 39A and 39B show the wellplates having different concentrations of iron chelator and antibiotic, as labeled along the x-axis and y-axis. […] The checkerboard assay was used to asses other combinations of iron chelators and antibiotics. The fractional inhibitory concentration index (FIC), which was calculated as follows: FIC=(MIC A in combination/MIC A)+(MIC B in combination/MIC B). […] Blank spaces indicate concentrations not tested. […] Against the species PA PAO1 and PA 27853, all the antibiotics except for Ami.

[5] = tested on: multi-drug resistant bacterial species; assay: Time kill method, synergy with rifampin (summary)
Method: as §1

[6] = AB3638, read-out: MIC of Iron Chelators
[7] = AB3806, read-out: MIC of Iron Chelators
[8] = AB4025, read-out: MIC of Iron Chelators
[9] = AB4026, read-out: MIC of Iron Chelators
[10] = AB4027, read-out: MIC of Iron Chelators
[11] = AB4052, read-out: MIC of Iron Chelators
[12] = AB4269, read-out: MIC of Iron Chelators
[13] = AB4448, read-out: MIC of Iron Chelators
[14] = AB4456, read-out: MIC of Iron Chelators
[15] = AB4490, read-out: MIC of Iron Chelators
[16] = AB4498, read-out: MIC of Iron Chelators
[17] = AB4795, read-out: MIC of Iron Chelators
[18] = AB4857, read-out: MIC of Iron Chelators
[19] = AB4878, read-out: MIC of Iron Chelators
[20] = AB4932, read-out: MIC of Iron Chelators
[21] = AB4957, read-out: MIC of Iron Chelators
[22] = AB4991, read-out: MIC of Iron Chelators
[23] = AB5001, read-out: MIC of Iron Chelators
[24] = AB5075, read-out: MIC of Iron Chelators
[25] = AB5197, read-out: MIC of Iron Chelators
[26] = AB5256, read-out: MIC of Iron Chelators
[27] = AB5674, read-out: MIC of Iron Chelators
[28] = AB5711, read-out: MIC of Iron Chelators

Cc1c(O)c(=O)ccn1C [ApoL1, 3-hydroxy-1,2-dimethyl-4(1H)-pyridone]
time-kill course of CFU/mL ([1]; 0.5×MIC): reduced level of CFU/ml at 2 and 6 hours but did increase in CFU at 24 hours to levels as seen in the untreated sample | effect on CFU/ml (time-kill, FIG. 13) ([1]; 1×MIC): slight inhibitory effect | time-kill course of CFU/mL ([1]; 1×MIC): reduced level of CFU/ml at 2 and 6 hours but did increase in CFU at 24 hours to levels as seen in the untreated sample | effect on CFU/ml (time-kill, FIG. 13) ([1]; 2×MIC): stronger inhibitory effect | time-kill course of CFU/mL ([1]; 2×MIC): did not have a substantial increase in CFU/ml over the 24 hour period | MIC ([2]; AB967, read-out: MIC of Iron Chelators): 250 µg/mL | MIC ([2]; AB2828, read-out: MIC of Iron Chelators): 500 µg/mL | MIC ([2]; AB3340, read-out: MIC of Iron Chelators): 250 µg/mL | MIC ([2]; AB3560, read-out: MIC of Iron Chelators): 500 µg/mL | MIC [2, 6]: 250 µg/mL | MIC ([2]; AB3785, read-out: MIC of Iron Chelators): 250 µg/mL | MIC [2, 7]: 500 µg/mL | MIC ([2]; AB3917, read-out: MIC of Iron Chelators): 250 µg/mL | MIC ([2]; AB3927, read-out: MIC of Iron Chelators): 250 µg/mL | MIC [2, 8]: 250 µg/mL | MIC [2, 9]: 250 µg/mL | MIC [2, 10]: 250 µg/mL | MIC [2, 11]: 250 µg/mL | MIC [2, 12]: 250 µg/mL | MIC [2, 13]: 250 µg/mL | MIC [2, 14]: 250 µg/mL | MIC [2, 15]: 250 µg/mL | MIC [2, 16]: 250 µg/mL | MIC [2, 17]: 250 µg/mL | MIC [2, 18]: 250 µg/mL | MIC [2, 19]: 250 µg/mL | MIC [2, 20]: 500 µg/mL | MIC [2, 21]: 125 µg/mL | MIC [2, 22]: 250 µg/mL | MIC [2, 23]: 125 µg/mL | MIC [2, 24]: 250 µg/mL | MIC [2, 25]: 250 µg/mL | MIC [2, 26]: 250 µg/mL | MIC [2, 27]: 250 µg/mL | MIC [2, 28]: 250 µg/mL | MIC of Iron Chelators ([3]; AB967): NG | MIC of Iron Chelators ([3]; AB2828): NG | MIC of Iron Chelators ([3]; AB3340): NG | MIC of Iron Chelators ([3]; AB3560): NG | MIC of Iron Chelators ([3]; AB3785): NG | MIC of Iron Chelators ([3]; AB3917): NG | MIC of Iron Chelators ([3]; AB3927): NG | MIC [3, 6]: 125 µg/mL | MIC [3, 7]: 125 µg/mL | MIC [3, 8]: 125 µg/mL | MIC [3, 9]: 125 µg/mL | MIC [3, 10]: 125 µg/mL | MIC [3, 11]: 125 µg/mL | MIC [3, 12]: 125 µg/mL | MIC [3, 13]: 125 µg/mL | MIC [3, 14]: 125 µg/mL | MIC [3, 15]: 125 µg/mL | MIC [3, 16]: 125 µg/mL | MIC [3, 17]: 125 µg/mL | MIC [3, 18]: 125 µg/mL | MIC [3, 19]: 250 µg/mL | MIC [3, 20]: 64 µg/mL | MIC [3, 21]: 125 µg/mL | MIC [3, 22]: 125 µg/mL | MIC [3, 23]: 125 µg/mL | MIC [3, 24]: 125 µg/mL | MIC [3, 25]: 125 µg/mL | MIC [3, 26]: 125 µg/mL | MIC [3, 27]: 125 µg/mL | MIC [3, 28]: 64 µg/mL | FIC ([4]; AB 17978, in combination with Amikacin): 1.25 | FIC ([4]; AB 17978, in combination with Cefotaxine): 1.25 | FIC ([4]; AB 17978, in combination with Colisitin (Colistin)): 1.25 | FIC ([4]; AB 17978, in combination with Doxycycline): 1.25 | FIC ([4]; AB 17978, in combination with Rifampin): 0.75 | FIC ([4]; AB 19606, in combination with Amikacin): 1.25 | FIC ([4]; AB 19606, in combination with Cefotaxine): 1.25 | FIC ([4]; AB 19606, in combination with Colisitin (Colistin)): 1.25 | FIC ([4]; AB 19606, in combination with Doxycycline): 2.25 | FIC ([4]; AB 19606, in combination with Rifampin): 0.75 | checkerboard interaction ([4]; with doxycycline (FIG. 39B)): indifference | checkerboard interaction ([4]; with rifampin (FIG. 39A)): moderate synergy | synergy with rifampin, time kill method [5]: strong synergy

— patent US10064858B2, “Methods and compositions for treating bacterial infections with iron chelators” (THE UNITED STATES OF AMERICA, AS REPRESENTED BY THE …, priority 2011, dated 2018)
